Measurements as given in PMC10790229 (Journal of medicinal chemistry, 2023).
Where two headings read alike, the source gives them in different places.

Columns and labels:
in vitro [1] = assay type: in vitro ADME; conditions: human, plasma
[2] = tested on: hexameric HIV-1 CA NL4.3 protein; assay: SPR binding to disulfide-stabilized hexameric HIV-1 CA
[3] = target: hexameric HIV-1 CA NL4.3 protein (Human immunodeficiency virus type 1, UniProt P12493); assay: as above
[4] = target: reverse transcriptase (RT) (Human immunodeficiency virus type 1 group M subtype B, UniProt P04585); assay: In vitro reverse transcriptase inhibition assay; assay type: biochemical, HIV-1; conditions: 900 nM
in vitro [5] = conditions: human, microsomes
HIV-2 ROD = assay: Anti-HIV-2 activity in MT-4 cells; assay type: cell-based; conditions: for SI ROD (CC50/EC50): MT-4 cells
[6] = tested on: p24 content of produced pseudoviruses; assay: ELISA-based quantification of capsid; assay type: cell-based, HIV-1; conditions: compound at 10× over EC50
[7] = target: monomeric HIV-1 CA NL4.3 protein (Human immunodeficiency virus type 1 group M subtype B, UniProt P12493); assay: SPR binding to monomeric HIV-1 CA
[8] = Cytotoxicity in uninfected MT-4 cells; assay type: cell-based; conditions: human
HIV-1 IIIB = assay: Anti-HIV-1 activity in MT-4 cells; assay type: cell-based
HIV-1 CA-NC = HIV-1 CA-NC (Human immunodeficiency virus type 1 group M subtype B, UniProt P12493); assay: FRET-based in vitro CA assembly assay; assay type: biochemical; conditions: 50 μM compound
HIV-1 = assay type: cell-based; conditions: 1 μM compound; DMSO = 100
[9] = human
[10] = In vivo pharmacokinetic study in SD rats; conditions: Sprague-Dawley, rat
[11] = target: CPSF6 peptide binding to hexameric HIV-1 CA NL4.3 protein (Human immunodeficiency virus type 1, UniProt P12493); assay: SPR-based CPSF6 peptide competition assay; conditions: read-out: IC50 CPSF6 peptide competition, CA hexamer
MT-4 cells = assay: Cytotoxicity in uninfected MT-4 cells; assay type: cell-based
[12] = read-out: EC50 ROD, 50% protection of MT-4 cells against HIV-induced cytotoxicity, HIV-2 ROD

## Nc1ccc(S(=O)(=O)N2CCN(CC(=O)N[C@@H](Cc3cc(F)cc(F)c3)c3nc4ccccc4c(=O)n3-c3ccc(S(=O)(=O)N4CCOCC4)cc3)C(=O)C2)cc1 [21a2, (S)-2-(4-((4-Aminophenyl)sulfonyl)-2-oxopiperazin-1-yl)-N-(2-(3,5-difluorophenyl)-1-(3-(4-(morpholinosulfonyl)phenyl)-4-oxo-3,4-dihydroquinazolin-2-yl)ethyl)acetamide]
In vitro [1]
  remaining at 2 h: 102%
[2]
  Ratio KD Monomer/KD Hexamer: 1.230
[3]; CA hexamer
  Residence Time Hexamer: 1.389 min
  koff Hexamer: 0.012 ± 0.000 s⁻¹
[3]; read-out: KD Hexamer, CA hexamer
  Kd: 199 ± 19 nM
[4]
  RT activity compared to RT control: about 80%
In vitro [5]
  CLint scaled: 282 mL/min/kg
  half-life: 4.4 min
  microsomal CLint: 313 µL/min/mg
In vitro [5]; % Remaining (NCF = 60 min)
  remaining at 1 h: 94.4%
In vitro [5]; % Remaining (T = 60 min)
  remaining at 1 h: 0.2%
HIV-2 ROD; HIV-2 ROD
  SI ROD (CC50/EC50): >1923.08
HIV-2 ROD; Human immunodeficiency virus 2, MT4, read-out: EC50 ROD
  EC50: 80 ± 10 nM
[6]
  p24 content of the produced virus: did not change significantly
[7]
  Kd: 244 ± 37 nM
[7]; SPR, CA monomer
  Residence Time Monomer: 0.417 min
  koff Monomer: 0.040 ± 0.007 s⁻¹
[8]
  CC50: > 152000 nM
HIV-1 IIIB; HIV-1 IIIB, MT-4 cells
  SI IIIB (CC50/EC50): >1329.79
  fold improvement of anti-HIV-1 potency over 11L: 2.5 fold
  fold improvement of anti-HIV-1 potency over PF74: 7.3 fold
HIV-1 IIIB; Human immunodeficiency virus 1, IIIB, MT4, read-out: EC50 IIIB
  EC50: 110 ± 50 nM
HIV-1 IIIB; MT-4 cells
  Ratio IIIB(EC50)/ROD(EC50): 1.38
HIV-1 CA-NC
  effect on CA assembly: enhance CA assembly
HIV-1
  % Infection Early Stage: 0.109 ± 0.046%
  % Infection Late Stage: 0.017 ± 0.003%
[9]
  intrinsic CL in microsomes, CLint(mic): 312.7 mL/min/kg
[10]; iv, 2 mg/kg
  AUC: 574 ± 151 ng·h/mL
  AUC(0-t): 572 ± 151 ng·h/mL
  C0: 2980 ± 545 ng/mL
  Cmax: 1650 ± 361 ng/mL
  MRT: 17 ± 2.81 min
  Tmax: 4.98 min
  Vd: 2.58 ± 0.707 L/kg
  half-life: 30.8 ± 10.6 min
[10]; iv, 2 mg/kg, CL (i.v.), SD rat, i.v. 2 mg/kg
  clearance: 60.5 mL/min/kg
[10]; po, 20 mg/kg
  AUC: 37.3 ng·h/mL
  AUC(0-t): 10.8 ± 17.4 ng·h/mL
  Cmax: 6.58 ± 8.24 ng/mL
  MRT: 182 min
  Tmax: 20 ± 8.64 min
  half-life: 121 min
[11]
  IC50: 163 ± 47.1 nM

## (S)-2-(4-((4-Aminophenyl)sulfonyl)-2-oxopiperazin-1-yl)-N-(2-(3,5-difluorophenyl)-1-(3-(4-methoxyphenyl)-7-(methylsulfonyl)-4-oxo-3,4-dihydroquinazolin-2-yl)ethyl)acetamide [12e2]
HIV-2 ROD; HIV-2 ROD
  SI ROD (CC50/EC50): >1041.67
HIV-2 ROD; [12]
  EC50: 150 ± 30 nM
MT-4 cells
  CC50: > 160000 nM
HIV-1 IIIB; HIV-1 IIIB, MT-4 cells
  SI IIIB (CC50/EC50): >235.85
HIV-1 IIIB; MT-4 cells
  Ratio IIIB(EC50)/ROD(EC50): 4.53

## COc1ccc(-n2c([C@H](Cc3cc(F)cc(F)c3)NC(=O)CN3CCN(S(=O)(=O)c4ccc(N)cc4)CC3=O)nc3cc(F)ccc3c2=O)cc1 [12b2, (S)-2-(4-((4-Aminophenyl)sulfonyl)-2-oxopiperazin-1-yl)-N-(2-(3,5-difluorophenyl)-1-(7-fluoro-3-(4-methoxyphenyl)-4-oxo-3,4-dihydroquinazolin-2-yl)ethyl)acetamide]
HIV-2 ROD; HIV-2 ROD
  SI ROD (CC50/EC50): >1488.10
HIV-2 ROD; [12]
  EC50: 120 ± 30 nM
MT-4 cells
  CC50: > 173000 nM
HIV-1 IIIB; HIV-1 IIIB, MT-4 cells
  SI IIIB (CC50/EC50): >568.18
HIV-1 IIIB; MT-4 cells
  Ratio IIIB(EC50)/ROD(EC50): 2.58

## O=C(CN1CCN(S(=O)(=O)c2ccc([N+](=O)[O-])cc2)CC1=O)N[C@@H](Cc1ccccc1)c1nc2ccccc2c(=O)n1-c1ccc(S(=O)(=O)N2CCOCC2)cc1 [20a1, (S)-N-(1-(3-(4-(Morpholinosulfonyl)phenyl)-4-oxo-3,4-dihydroquinazolin-2-yl)-2-phenylethyl)-2-(4-((4-nitrophenyl)-sulfonyl)-2-oxopiperazin-1-yl)acetamide]
HIV-2 ROD; HIV-2 ROD
  SI ROD (CC50/EC50): >416.67
HIV-2 ROD; [12]
  EC50: 370 ± 90 nM
MT-4 cells
  CC50: > 153000 nM
HIV-1 IIIB; HIV-1 IIIB, MT-4 cells
  SI IIIB (CC50/EC50): >126.26
HIV-1 IIIB; MT-4 cells
  Ratio IIIB(EC50)/ROD(EC50): 3.27

## (S)-N-(1-(7-Fluoro-3-(4-methoxyphenyl)-4-oxo-3,4-dihydroquinazolin-2-yl)-2-phenylethyl)-2-(4-((4-nitrophenyl)sulfonyl)-2-oxopiperazin-1-yl)acetamide [11b1]
HIV-2 ROD; HIV-2 ROD
  SI ROD (CC50/EC50): >312.50
HIV-2 ROD; [12]
  EC50: 560 ± 140 nM
MT-4 cells
  CC50: > 175000 nM
HIV-1 IIIB; HIV-1 IIIB, MT-4 cells
  SI IIIB (CC50/EC50): >88.03
HIV-1 IIIB; MT-4 cells
  Ratio IIIB(EC50)/ROD(EC50): 3.55
